Here are results for four molecules from ChEMBL document CHEMBL4699625, “Callyspongiolide Is a Potent Inhibitor of the Vacuolar ATPase” (J Nat Prod, 2020).

The source made the active and inactive calls. The calls are words filed in the database; no cut-off is given here.

The test system of experiment [1] is Jurkat. As to the kind of experiment: Cytotoxicity against human Jurkat cells assessed as reduction in cell viability. The format is functional, cell-based.
For experiment [2], the system named is Jurkat. As to the kind of experiment: Cytotoxicity against human Jurkat cells assessed as reduction in cell viability in presence of pan-caspase inhibitor Z-VAD-FMK relative to control. The format is functional.
For experiment [3], the system named is Saccharomyces cerevisiae. The experiment in a line: Antifungal activity against Saccharomyces cerevisiae W303 assessed as reduction in microbial growth at 10 uM after 2 to 3 days. The class given is functional, organism-based. The following applies: time day 2-3.
The test system of experiment [4] is Saccharomyces cerevisiae. The experiment in a line: Antifungal activity against Saccharomyces cerevisiae W303 pdr5 deletion mutant assessed as reduction in microbial growth at 0.5 uM after 2 to 3 days. Conditions: time day 2-3. The class given is functional, organism-based.
Experiment [5] relates to Saccharomyces cerevisiae. As to the kind of experiment: Growth inhibition of Saccharomyces cerevisiae W303 at 10 uM after 2 to 3 days in glycerol condition relative to control. The format is functional. The following applies: time day 2-3, read-out: GI.
Experiment [6] relates to Saccharomyces cerevisiae. As to the kind of experiment: Growth inhibition of Saccharomyces cerevisiae W303 pdr5 deletion mutant at 10 uM after 2 to 3 days in glycerol condition relative to control. The class given is functional. The following applies: time day 2-3, read-out: GI.
The subject of experiment [7] is Saccharomyces cerevisiae. The experiment in a line: Growth inhibition of Saccharomyces cerevisiae W303 pdr5 deletion mutant at 10 uM after 2 to 3 days in ammonium iron(II) sulfate condition. The class given is functional, organism-based. The following applies: time day 2-3.
The test system of experiment [8] is Saccharomyces cerevisiae. The experiment in a line: Growth inhibition of Saccharomyces cerevisiae W303 at 10 uM after 2 to 3 days in ammonium iron(II) sulfate condition. The format is functional, organism-based. Conditions: time day 2-3.
In experiment [9] the test system is Saccharomyces cerevisiae. As to the kind of experiment: Growth inhibition of Saccharomyces cerevisiae W303 pdr5 deletion mutant at 0.5 to 10 uM after 2 to 3 days at pH 5 condition. The following applies: dose microM 0.5-10, time day 2-3. The class given is functional, organism-based.
Experiment [10] deals with Saccharomyces cerevisiae. As to the kind of experiment: Growth inhibition of Saccharomyces cerevisiae W303 at 0.5 to 10 uM after 2 to 3 days at pH 5 condition. The format is functional, organism-based. The following applies: dose microM 0.5-10, time day 2-3.
Experiment [11] relates to Saccharomyces cerevisiae. The experiment in a line: Growth inhibition of Saccharomyces cerevisiae W303 pdr5 deletion mutant at 0.5 to 10 uM after 2 to 3 days at pH 7.5 condition. The class given is functional, organism-based. Conditions: dose microM 0.5-10, time day 2-3.
For experiment [12], the system named is Saccharomyces cerevisiae. The experiment in a line: Growth inhibition of Saccharomyces cerevisiae W303 at 0.5 to 10 uM after 2 to 3 days at pH 7.5 condition. The format is functional, organism-based. Conditions: dose microM 0.5-10, time day 2-3.
The subject of experiment [13] is Saccharomyces cerevisiae W303. As to the kind of experiment: Inhibition of V-ATpase in Saccharomyces cerevisiae W303 assessed as quinacrine accumulation in the cytosol at 10 uM after 4 hrs by fluorescence microscopic method. The class given is subcellular.
Experiment [14] has as its system Saccharomyces cerevisiae W303. As to the kind of experiment: Inhibition of V-ATpase in Saccharomyces cerevisiae W303 pdr5 deletion mutant assessed as quinacrine accumulation in the cytosol at 10 uM after 4 hrs by fluorescence microscopic method. The format is subcellular.
Experiment [15] concerns Saccharomyces cerevisiae W303. As to the kind of experiment: Inhibition of V-ATpase in Saccharomyces cerevisiae […] vacuolar membranes at 80 nM after 10 mins by spectrophotometric based coupled enzyme assay. The following applies: Membrane. The class given is cell membranes.
Experiment [16] in a line: Inhibition of V-ATpase in Saccharomyces cerevisiae […] vacuolar membranes after 10 mins by spectrophotometric based coupled enzyme assay. The class given is cell membranes, Saccharomyces cerevisiae W303, Membrane.
The test system of experiment [17] is Saccharomyces cerevisiae. The experiment in a line: Growth inhibition of Saccharomyces cerevisiae W303 at 0.5 uM after 2 to 3 days in glycerol condition relative to control. The format is functional. Conditions: time day 2-3, read-out: GI.
Experiment [18] has as its system Saccharomyces cerevisiae. The experiment in a line: Growth inhibition of Saccharomyces cerevisiae W303 pdr5 deletion mutant at 0.5 uM after 2 to 3 days in glycerol condition relative to control. The class given is functional. Conditions: time day 2-3, read-out: GI.
For experiment [19], the system named is Saccharomyces cerevisiae. As to the kind of experiment: Growth inhibition of Saccharomyces cerevisiae W303 pdr5 deletion mutant at 0.5 uM after 2 to 3 days in ammonium iron(II) sulfate condition. The format is functional, organism-based. The following applies: time day 2-3.
Experiment [20] deals with Saccharomyces cerevisiae. The experiment in a line: Growth inhibition of Saccharomyces cerevisiae W303 at 0.5 uM after 2 to 3 days in ammonium iron(II) sulfate condition. The format is functional, organism-based. The following applies: time day 2-3.
Experiment [21] concerns Saccharomyces cerevisiae W303. As to the kind of experiment: Inhibition of V-ATpase in Saccharomyces cerevisiae W303 assessed as quinacrine accumulation in the cytosol at 0.5 uM after 4 hrs by fluorescence microscopic method. The format is subcellular.
Experiment [22] deals with Saccharomyces cerevisiae W303. As to the kind of experiment: Inhibition of V-ATpase in Saccharomyces cerevisiae W303 pdr5 deletion mutant assessed as quinacrine accumulation in the cytosol at 0.5 uM after 4 hrs by fluorescence microscopic method. The class given is subcellular.
For experiment [23], the system named is Saccharomyces cerevisiae. As to the kind of experiment: Inhibition of V-ATpase in Saccharomyces cerevisiae BY4742 vacuolar membranes at 100 nM after 10 mins by spectrophotometric based coupled enzyme assay relative to control. The class given is cell membranes. Conditions: Membrane.

As for `C[C@@H]1C/C=C/C(=O)O[C@H](/C=C/C#C/C=C/C(C)(C)[C@@H](O)c2cccc(O)c2Br)[C@@H](C)/C=C/[C@H](C)C[C@H](OC(N)=O)C1`, the IC50 in experiment [1] is 115 nM.

With `C[C@@H]1C/C=C\C(=O)O[C@H](/C=C/C#C/C=C/C(C)(C)[C@@H](O)c2cccc(O)c2Br)[C@@H](C)/C=C/[C@H](C)C[C@H](OC(N)=O)C1`, the 50% inhibitory concentration (IC50) is 43 nM in experiment [1] and 9.91 nM in [16]. In addition, in [2], the Activity is recorded as less than 3%. Moreover, the result in [3] and in [4] was Active. The inhibition of growth at 10 µM in [5] and in experiment [6] was 100% each time. In addition, the “growth inhibition (GI)” value in experiment [7] and in [8] was “inactive” in each case. The “growth inhibition (GI)” value in [9], in [10], in experiment [11] and in experiment [12] was “Active” in each case. Further, the inhibition result in experiment [13], in experiment [14] and in experiment [15] was “Active” in each case.

On to `C/C=C/[C@H]1O[C@@](O)([C@@H](C)[C@H](O)[C@H](C)[C@H]2OC(=O)/C(OC)=C/C(C)=C/[C@@H](C)[C@@H](O)[C@@H](CC)[C@@H](O)[C@H](C)C/C(C)=C/C=C/[C@@H]2OC)C[C@@H](O[C@H]2C[C@@H](O)[C@H](OC(N)=O)[C@@H](C)O2)[C@@H]1C` [CONCANAMYCIN A], for which, in experiment [4], the outcome was Active. The inhibition of growth at 0.5 µM in experiment [17] and in experiment [18] was 100% in each case. For the same molecule, the “growth inhibition (GI)” value in experiment [19] and in experiment [20] was “inactive” each time. Also, the inhibition result in [21] and in experiment [22] was “Active” in each case. The molecule further gave an inhibition in experiment [23] of 75%. In [16], half-maximal inhibition (IC50) was put at 3 nM.

In turn, `CO/C1=C\C(C)=C\[C@@H](C)[C@@H](O)[C@@H](C)C/C(C)=C/C=C/[C@H](OC)[C@@H]([C@@H](C)[C@@H](O)[C@H](C)[C@@]2(O)C[C@@H](O)[C@H](C)[C@@H](C(C)C)O2)OC1=O` [BAFILOMYCIN A1] displayed an IC50 in experiment [16] of 4 nM.

The term IC50 denotes the concentration that gives 50% inhibition. Usually inhibition stands for how much of the control response was suppressed.
